Consider one sequence from US5776892A, “Anti-inflammatory peptides” (Curative Health Services, Inc., priority 1994, dated 1998).

One series is described as follows: Acute toxicity in mice. As to conditions: intravenous 100, 500 or 1,000 mg/kg. It counts as in vivo, mouse. As for the experimental part:
Acute toxicity of CT-112 (SEQ. ID NO: 1) in mice and rats was assessed. Mice were dosed by intravenous injection with CT-112 (SEQ. ID NO: 1) at 100, 500 or 1,000 mg/kg.

Another series has as its system Salmonella. Kind of series: Salmonella reverse mutation assay. Format: cell-based. As to conditions: 100-5,000 μg/ml, with or without rat liver microsomal enzyme activation. From the text:
The mutagenic potential of CT-112 (SEQ. ID NO: 1) has been assessed.
On the technique in general: Liver microsomes are vesicles of endoplasmic reticulum, rich in cytochrome P450 enzymes.

For series [1], the system named is mouse bone marrow polychromatic erythrocyte. As to conditions: in vivo.
The test system of series [2] is carrageenan-induced peritonitis. Put plainly: Carrageenan-induced peritonitis, inflammatory cell influx in peritoneal lavage. It counts as in vivo, mouse. As to conditions: 60 mg/kg/day minipump. The protocol:
Mice (C57BL/6UAF, females, 12 weeks old) were implanted with Alzet mini pumps set to deliver 60 mg CT-112/kg/day. Six days post-implantation, the mice were challenged with an intraperitoneal injection of 0.3 ml of carrageenan in PBS (10 mg/ml). The peritoneal cavity was lavaged with 15 ml of Hank's Balanced Salt Solution (Ca^2+ - and Mg^2+ -free) at 24, 48 and 72 hr post-challenge. The lavage fluid was centrifuged (500 g, 5 min), fixed with LeukoStat fixative and stained with LeukoStat staining solution. The slides were analyzed under a microscope for the different types of inflammatory cells, such as macrophages, lymphocytes and neutrophils. At the 48-hr time point, 5 control mice were also lavaged.

A further series deals with neutrophils. Kind of series: Neutrophil chemotaxis to leukotriene B4. The conditions noted are these: 15 min pre-exposure; read at 1 hr; FIG. 4. Format: cell-based. The protocol: The ability of CT-112 (SEQ. ID NO: 1) to inhibit chemotaxis of neutrophils in response to a variety of agents was assessed using Neuroprobe chemotaxis chambers. For these assays, neutrophils were resuspended in Hank's balanced salt solution with Ca^2+ and Mg^2+ to give a 5×10^6 cells/ml suspension after the cells were labeled with 1',7'-bis(2-carboxyethyl)-5-(6)-carboxyfluorescein. The neutrophils were exposed to CT-112 (SEQ. ID NO: 1) for approximately 15 min prior to addition to the chemotaxis chambers. CT-112 (SEQ. ID NO: 1) was present in both the top and bottom of the chambers, and the chemoattractant, either f-Met-Leu-Phe, leukotriene B4 or interleukin-8, was added to the bottom of chamber. Cells which had migrated through the membrane were determined by fluorescence at 530 nm at 1 hr after initiation of the assay.

No end group written: not given here.

Turning to “TTSQVRPR [CT-112, octapeptide derived from platelet factor 4]”, in the series “Acute toxicity in mice”, the lesions at necropsy result is on record as “No lesions were visible at necropsy”; the “mean body weight and mean body weight gain vs control” value was “no statistical differences”. Further, the clinical effects entry in the series “Acute toxicity in mice” (one mouse at 500 and two at 1,000 mg/kg, day of treatment) was “Minimal transient clinical effects (hypoactivity and hypersensitivity)”. Also, the “number of revertants (histidine independent growth)” value in the series with Salmonella is recorded as “did not cause an increase in the number of revertants”. Moreover, the micronuclei result in series [1] is on record as “did not induce a significant increase in micronuclei”. For the same sequence, in series [2] (24 hr post carrageenan), the “Absolute Cell Number, Lymphocytes” value came to 16.9 ± 5.9; the “Absolute Cell Number, Macrophages” value stood at 19.5 ± 10; the “Absolute Cell Number, Neutrophils” value amounted to 106 ± 29. In addition, in series [2] (48 hr post carrageenan), the “Absolute Cell Number, Lymphocytes” value came out at 12.5 ± 7.6; the “Absolute Cell Number, Macrophages” value came out at 126 ± 43; the “Absolute Cell Number, Neutrophils” value came out at 134 ± 77. In series [2] (72 hr post carrageenan), the “Absolute Cell Number, Lymphocytes” value was determined as 45.1 ± 42; the “Absolute Cell Number, Macrophages” value is recorded as 255 ± 125; the “Absolute Cell Number, Neutrophils” value is 48.4 ± 28. In addition, the “chemotactic migration of neutrophils to LTB4” value in the series with neutrophils is listed as “effectively inhibited”.
